The values that follow come from publication PMC11995724, “Antibiotic target discovery by integrated phenotypic and activity-based profiling of electrophilic fragments” (Cell chemical biology, 2025).

Counter-ions that a name gives are not always drawn.

The data set in a line: in vitro. To be noted: human, hek293t cells.
As a reminder, the viability is a read-out of living cells in per cent, often relative to untreated cells. For the compound `O=C(CCl)NC(Cc1cccc(O)c1)c1ccccc1` (centres unmarked) [7-N20, 2-chloro-N-[2-(3-hydroxyphenyl)-1-phenylethyl]acetamide], the viability at 48 h, 25 µM is 0.777%.
Under `CC(Cl)C(=O)NC(C)c1nnnn1C1CC1` (centres unmarked) [7-N21, 2-chloro-N-[1-(1-cyclopropyl-1H-1,2,3,4-tetrazol-5-yl)ethyl]propanamide] stands 75.9%; under `CC(Cl)C(=O)N1Cc2cccn2[C@@H](C)C1` (stereo partly drawn) [7-N22, 2-chloro-1-[(4S)-4-methyl-1H,2H,3H,4H-pyrrolo[1,2-a]pyrazin-2-yl]propan-1-one], 86.7%; under `CC(Cl)C(=O)NCC1CN(c2nncs2)CCO1` (centres unmarked) [7-O03, 2-chloro-N-{[4-(1,3,4-thiadiazol-2-yl)morpholin-2-yl]methyl}propanamide], 106%.
Consider `Cc1nc([C@H]2CCCN2C(=O)C(C)Cl)cs1` (stereo partly drawn) [7-O04, 2-chloro-1-[(2R)-2-(2-methyl-1,3-thiazol-4-yl)pyrrolidin-1-yl]propan-1-one], for which the viability at 48 h, 25 µM was 95.2%.
`CC(Cl)C(=O)NC1CCN(S(=O)(=O)c2cnn(C)c2)CC1` (centres unmarked) [7-O05, 2-chloro-N-{1-[(1-methyl-1H-pyrazol-4-yl)sulfonyl]piperidin-4-yl}propanamide]: the viability at 48 h, 25 µM worked out at 113%.
For `CC(=O)NC1(c2nc(C)cs2)CCN(C(=O)C(C)Cl)C1` (centres unmarked) [7-O06, N-[1-(2-chloropropanoyl)-3-(4-methyl-1,3-thiazol-2-yl)pyrrolidin-3-yl]acetamide] the value was 114%; for `CC(Cl)C(=O)N1CCN(C(C)C)c2ccccc2C1` (centres unmarked) [7-O07, 2-chloro-1-[1-(propan-2-yl)-2,3,4,5-tetrahydro-1H-1,4-benzodiazepin-4-yl]propan-1-one], 81.6%; for `CC(Cl)C(=O)NCCc1csc(N2CCCC2)n1` (centres unmarked) [7-O08, 2-chloro-N-{2-[2-(pyrrolidin-1-yl)-1,3-thiazol-4-yl]ethyl}propanamide], 95.9%.
Regarding `CC(Cl)C(=O)N[C@H](CC(N)=O)c1cccc(Cl)c1` (stereo partly drawn) [7-O09, (3R)-3-(3-chlorophenyl)-3-(2-chloropropanamido)propanamide], the viability at 48 h, 25 µM amounted to 102%.
Turning to `Cc1ccc(CNC(=O)C(C)Cl)c2ccccc12` (centres unmarked) [7-O10, 2-chloro-N-[(4-methylnaphthalen-1-yl)methyl]propanamide], the viability at 48 h, 25 µM stood at 88.6%.
In the case of `Cc1noc(C)c1S(=O)(=O)N1CCCN(C(=O)C(C)Cl)CC1` (centres unmarked) [7-O11, 2-chloro-1-{4-[(3,5-dimethyl-1,2-oxazol-4-yl)sulfonyl]-1,4-diazepan-1-yl}propan-1-one], the viability at 48 h, 25 µM was 89.5%.
For `CC(Cl)C(=O)N1CCC(c2cc3ccccc3[nH]2)C1` (centres unmarked) [7-O12, 2-chloro-1-[3-(1H-indol-2-yl)pyrrolidin-1-yl]propan-1-one] the value was 82.5%; for `Cc1cc(C2(NC(=O)C(C)Cl)CCOCC2)on1` (centres unmarked) [7-O13, 2-chloro-N-[4-(3-methyl-1,2-oxazol-5-yl)oxan-4-yl]propanamide], 95.5%.
`Cc1noc(C)c1COC1CCN(C(=O)C(C)Cl)C1` (centres unmarked) [7-O14, 2-chloro-1-{3-[(3,5-dimethyl-1,2-oxazol-4-yl)methoxy]pyrrolidin-1-yl}propan-1-one]: the viability at 48 h, 25 µM was 90.9%.
For `CC(Cl)C(=O)N1C2CCC1CC(c1ccnn1C)C2` (centres unmarked) [7-O15, 2-chloro-1-[3-(1-methyl-1H-pyrazol-5-yl)-8-azabicyclo[3.2.1]octan-8-yl]propan-1-one], the viability at 48 h, 25 µM was 88.6%.
Regarding `CCC(C)C1CN(Cc2ccc(C)nc2)CCN1C(=O)C(C)Cl` (centres unmarked) [7-O16, 1-[2-(butan-2-yl)-4-[(6-methylpyridin-3-yl)methyl]piperazin-1-yl]-2-chloropropan-1-one], the viability at 48 h, 25 µM is 74.9%.
Consider `CC(Cl)C(=O)NCc1nc2cccnc2n1C` (centres unmarked) [7-O17, 2-chloro-N-({3-methyl-3H-imidazo[4,5-b]pyridin-2-yl}methyl)propanamide], for which the viability at 48 h, 25 µM worked out at 103%.
Under `CC(Cl)C(=O)NCc1cccc(N2C(=O)NC3(CCCC3)C2=O)c1` (centres unmarked) [7-O18, 2-chloro-N-[(3-{2,4-dioxo-1,3-diazaspiro[4.4]nonan-3-yl}phenyl)methyl]propanamide] stands 103%; under `Cc1cc(C)n(CCCNC(=O)C(C)Cl)n1` (centres unmarked) [7-O19, 2-chloro-N-[3-(3,5-dimethyl-1H-pyrazol-1-yl)propyl]propanamide], 78.1%.
For `CC(Cl)C(=O)NCC1CC(=O)N(c2ccccc2)C1` (centres unmarked) [7-O20, 2-chloro-N-[(5-oxo-1-phenylpyrrolidin-3-yl)methyl]propanamide] the value was 85.1%.
Under `Cc1nc2ccccc2n(CCCNC(=O)C(C)Cl)c1=O` (centres unmarked) [7-O21, 2-chloro-N-[3-(3-methyl-2-oxo-1,2-dihydroquinoxalin-1-yl)propyl]propanamide] stands 59.4%; under `CC(Cl)C(=O)Nc1ccc(Cc2nnc3ncccn23)cc1` (centres unmarked) [7-O22, 2-chloro-N-[4-({[1,2,4]triazolo[4,3-a]pyrimidin-3-yl}methyl)phenyl]propanamide], 74.1%; under `Cc1ccsc1CN(C(=O)CCl)C(C)C` [7-P03, 2-chloro-N-[(3-methylthiophen-2-yl)methyl]-N-(propan-2-yl)acetamide], 0.159%.
For `O=C(CCl)NCCC1CCCC1(F)F` (centres unmarked) [7-P04, 2-chloro-N-[2-(2,2-difluorocyclopentyl)ethyl]acetamide], the viability at 48 h, 25 µM came out at 1.08%.
Under `CC(Cl)C(=O)NCc1nn(-c2ccccc2)c2c1CCC2` (centres unmarked) [7-P05, 2-chloro-N-({1-phenyl-1H,4H,5H,6H-cyclopenta[c]pyrazol-3-yl}methyl)propanamide] stands 116%; under `O=C(CCl)NC1CCN(C(=O)c2ccccc2)C1` (centres unmarked) [7-P06, N-(1-benzoylpyrrolidin-3-yl)-2-chloroacetamide], 0.866%; under `CC(Cl)C(=O)NC(C)C(=O)Nc1ccc(-n2cncn2)cc1` (centres unmarked) [7-P07, 2-chloro-N-(1-{[4-(1H-1,2,4-triazol-1-yl)phenyl]carbamoyl}ethyl)propanamide], 98.6%.
Under `O=C(CCl)NC1C=C(c2ccc(Cl)cc2)CCC1` (centres unmarked) [7-P08, 2-chloro-N-[3-(4-chlorophenyl)cyclohex-2-en-1-yl]acetamide] stands 0.393%; under `COc1ccc(Cl)c2c1CCCC2N(C)C(=O)C(C)Cl` (centres unmarked) [7-P09, 2-chloro-N-(8-chloro-5-methoxy-1,2,3,4-tetrahydronaphthalen-1-yl)-N-methylpropanamide], 86.7%.
Under `CCn1nc(C)c(CNC(=O)CCl)c1C` [7-P10, 2-chloro-N-[(1-ethyl-3,5-dimethyl-1H-pyrazol-4-yl)methyl]acetamide] stands 30%; under `CC(Cl)C(=O)NCCc1nc2cc(F)ccc2s1` (centres unmarked) [7-P11, 2-chloro-N-[2-(5-fluoro-1,3-benzothiazol-2-yl)ethyl]propanamide], 89.1%.
Consider `Cc1ccc(F)c(S(=O)(=O)NCCNC(=O)CCl)c1` [7-P12, 2-chloro-N-[2-(2-fluoro-5-methylbenzenesulfonamido)ethyl]acetamide], for which the viability at 48 h, 25 µM was 1.05%.
For the compound `Cc1nc(C)n(C2CCCN(C(=O)C(C)Cl)C2)n1` (centres unmarked) [7-P13, 2-chloro-1-[3-(3,5-dimethyl-1H-1,2,4-triazol-1-yl)piperidin-1-yl]propan-1-one], the viability at 48 h, 25 µM came out at 92.3%.
For `NC(=O)c1ccccc1N1CCC(NC(=O)CCl)CC1` [7-P14, 2-[4-(2-chloroacetamido)piperidin-1-yl]benzamide hydrochloride], the viability at 48 h, 25 µM stood at 0.53%.
For `CC(Cl)C(=O)NCC(=O)N(C)Cc1cccnc1` (centres unmarked) [7-P15, 2-chloro-N-({methyl[(pyridin-3-yl)methyl]carbamoyl}methyl)propanamide] the value was 91.3%; for `O=C(CCl)N[C@H]1CCN(S(=O)(=O)c2ccccc2)C1` [7-P16, N-[(3S)-1-(benzenesulfonyl)pyrrolidin-3-yl]-2-chloroacetamide], 0.479%.
For `Cc1cc(C)n(CC2CCN(C(=O)C(C)Cl)CC2)n1` (centres unmarked) [7-P17, 2-chloro-1-{4-[(3,5-dimethyl-1H-pyrazol-1-yl)methyl]piperidin-1-yl}propan-1-one] the value was 79.8%; for `CC(c1ccc(C(F)(F)F)cc1F)N(C)C(=O)CCl` (centres unmarked) [7-P18, 2-chloro-N-{1-[2-fluoro-4-(trifluoromethyl)phenyl]ethyl}-N-methylacetamide], 0.35%; for `Cc1nn(CC(C)C)c(Cl)c1C1CCCN1C(=O)C(C)Cl` (centres unmarked) [7-P19, 2-chloro-1-{2-[5-chloro-3-methyl-1-(2-methylpropyl)-1H-pyrazol-4-yl]pyrrolidin-1-yl}propan-1-one], 78%.
For the compound `O=C(CCl)NCC(F)(F)c1cc(-c2ccccc2)n[nH]1` [7-P20, 2-chloro-N-[2,2-difluoro-2-(3-phenyl-1H-pyrazol-5-yl)ethyl]acetamide], the viability at 48 h, 25 µM was 0.938%.
Under `CN(CCc1ccccc1O)C(=O)CCl` [7-P21, 2-chloro-N-[2-(2-hydroxyphenyl)ethyl]-N-methylacetamide] stands -0.172%; under `CC(Cl)C(=O)N1CCN(C(C)c2cccc(C#N)c2)CC1` (centres unmarked) [7-P22, 3-{1-[4-(2-chloropropanoyl)piperazin-1-yl]ethyl}benzonitrile], 66.4%.
For `COc1ccc(C=C(C#N)C(=O)Nc2cccc(C(F)(F)F)c2)cc1` [8-A03, 2-cyano-3-(4-methoxyphenyl)-N-[3-(trifluoromethyl)phenyl]prop-2-enamide] the value was 72.2%.
Consider `N#CC(=Cc1cccs1)C(=O)Nc1ccc(C(=O)O)cc1` [8-A04, 4-[2-cyano-3-(thiophen-2-yl)prop-2-enamido]benzoic acid], for which the viability at 48 h, 25 µM was 71.7%.
For `COc1ccc(C=C(C#N)C(=O)Nc2ccccc2)cc1` [8-A05, 2-cyano-3-(4-methoxyphenyl)-N-phenylprop-2-enamide] the value was 76.8%.
For `Cc1ccc(C=C(C#N)C(=O)Nc2ccc(N3CCOCC3)cc2)s1` [8-A06, 2-cyano-3-(5-methylthiophen-2-yl)-N-[4-(morpholin-4-yl)phenyl]prop-2-enamide] the value was 76.2%.
